Results on eight cell lines are retold here after the supplement of paper PMC10307832.

Experiment in all cases: relative viability (nuclei count vs DMSO), 5 days (fraction); higher = more cells survive
Compound in one assay: CC(C)(C)c1nc(-c2cccc(NS(=O)(=O)c3c(F)cccc3F)c2F)c(-c2ccnc(N)n2)s1 [Dabrafenib]
The method, boiled down: (§1)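 On vehicle-anchored 1536-well plates, lung cancer cell lines held overnight at 37 °C were pinned with five library-drug doses (not always all listed) spaced by √10. With no medium change over 5 days, they were then fixed, permeabilised and Hoechst-stained in one step and imaged at 4×. MetaXpress counted nuclei, and viability is the median across plates of treated-well over vehicle-well nuclei. Acceptance needed control CV below 25% and at least one doubling.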

Compound in the next assay: NC(=O)c1ccc(N(C(N)=O)c2c(F)cccc2F)nc1-c1ccc(F)cc1F [VX-702]
The method, boiled down:
as §1

Compound in the assay “Dabrafenib + Trametinib”: CC(C)(C)c1nc(-c2cccc(NS(=O)(=O)c3c(F)cccc3F)c2F)c(-c2ccnc(N)n2)s1 [Dabrafenib] + CC(=O)Nc1cccc(-n2c(=O)n(C3CC3)c(=O)c3c(Nc4ccc(I)cc4F)n(C)c(=O)c(C)c32)c1 [Trametinib] (partner 0.02 µM)
Put shortly: (§2)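 Nuclei were stained with Hoechst during a one-step fixation (final 0.05% Triton X-100, 1% formaldehyde, 1 ug/ml Hoechst) carried out 5 days after dosing, then counted on 4× images. The cells, lung cancer lines in 1536-well plates, had been dosed by pin tool the day after seeding with one drug alone or a fixed anchor-drug dose plus five library-drug doses (not always all listed) in √10 steps. Relative viability is the nuclei count in treated wells divided by that in vehicle wells, and each value is the median of duplicate plates.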

Compound in the assay “VX-702 + Navitoclax”: NC(=O)c1ccc(N(C(N)=O)c2c(F)cccc2F)nc1-c1ccc(F)cc1F [VX-702] + CC1(C)CCC(c2ccc(Cl)cc2)=C(CN2CCN(c3ccc(C(=O)NS(=O)(=O)c4ccc(N[C@H](CCN5CCOCC5)CSc5ccccc5)c(S(=O)(=O)C(F)(F)F)c4)cc3)CC2)C1 [Navitoclax] (partner 0.5 µM)
The method, boiled down:
as §2

In the case of NCI-H3122, the relative viability with Dabrafenib (0.003 µM) came out at 0.981; with Dabrafenib (0.009487 µM) it was 1.05; in the assay with Dabrafenib (0.03 µM) it was 1.09; with Dabrafenib (0.09487 µM) it was 0.991; with Dabrafenib (0.3 µM), 1.06; with VX-702 (0.02 µM), 1.01. The relative viability worked out at 0.979 with VX-702 (0.2 µM); 1 with VX-702 (0.6325 µM); 1 with VX-702 (2 µM); 0.273 with Dabrafenib + Trametinib (first compound 0.003 µM); 0.209 with Dabrafenib + Trametinib (first compound 0.009487 µM); 0.159 in the assay with Dabrafenib + Trametinib (first compound 0.03 µM). Moreover, the relative viability with Dabrafenib + Trametinib (first compound 0.09487 µM) was 0.212; in the assay with Dabrafenib + Trametinib (first compound 0.3 µM), 0.238; in the assay with VX-702 + Navitoclax (first compound 0.02 µM), 1.07; with VX-702 + Navitoclax (first compound 0.2 µM), 1.05; with VX-702 + Navitoclax (first compound 0.6325 µM) it was 1.04; in the assay with VX-702 + Navitoclax (first compound 2 µM), 1.02.

Regarding PC-3 [JPC-3], the relative viability was 0.822 in the assay with Dabrafenib (0.003 µM); 1.08 with Dabrafenib (0.009487 µM); 1.11 with Dabrafenib (0.03 µM); 1.03 in the assay with Dabrafenib (0.09487 µM); 1.13 in the assay with Dabrafenib (0.3 µM); 1.11 with VX-702 (0.02 µM). The relative viability stood at 0.988 in the assay with VX-702 (0.2 µM); 1.13 with VX-702 (0.6325 µM); 1.06 with VX-702 (2 µM); 0.812 with Dabrafenib + Trametinib (first compound 0.009487 µM); 0.751 with Dabrafenib + Trametinib (first compound 0.03 µM); 0.893 with Dabrafenib + Trametinib (first compound 0.09487 µM). Further, the relative viability worked out at 0.863 with Dabrafenib + Trametinib (first compound 0.3 µM); 0.756 in the assay with VX-702 + Navitoclax (first compound 0.02 µM); 0.846 with VX-702 + Navitoclax (first compound 0.2 µM); 0.844 in the assay with VX-702 + Navitoclax (first compound 0.6325 µM); 0.853 with VX-702 + Navitoclax (first compound 2 µM).

For PC-14, the relative viability in the assay with Dabrafenib (0.003 µM) came out at 0.795; with Dabrafenib (0.009487 µM) it was 1.05; with Dabrafenib (0.03 µM), 1.11; with Dabrafenib (0.09487 µM), 1.01; in the assay with Dabrafenib (0.3 µM) it was 1.1; in the assay with VX-702 (0.02 µM), 1.11. The relative viability in the assay with VX-702 (0.2 µM) turned out to be 1.03; with VX-702 (0.6325 µM), 1.12; with VX-702 (2 µM), 0.873; with Dabrafenib + Trametinib (first compound 0.009487 µM), 0.976; with Dabrafenib + Trametinib (first compound 0.03 µM), 0.944; in the assay with Dabrafenib + Trametinib (first compound 0.09487 µM), 0.708. The relative viability in the assay with Dabrafenib + Trametinib (first compound 0.3 µM) amounted to 1; with VX-702 + Navitoclax (first compound 0.02 µM) it was 1.06; in the assay with VX-702 + Navitoclax (first compound 0.2 µM) it was 1.01; in the assay with VX-702 + Navitoclax (first compound 0.6325 µM) it was 1.04; in the assay with VX-702 + Navitoclax (first compound 2 µM) it was 1.03.

Take RERF-LC-KJ: the relative viability with Dabrafenib (0.003 µM) worked out at 1; in the assay with Dabrafenib (0.009487 µM), 1.15; with Dabrafenib (0.03 µM), 0.969; with Dabrafenib (0.09487 µM) it was 0.986; with Dabrafenib (0.3 µM), 1.1; in the assay with VX-702 (0.02 µM), 0.989. The relative viability with VX-702 (0.2 µM) came out at 1.03; in the assay with VX-702 (0.6325 µM), 1.01; with VX-702 (2 µM), 1.03; in the assay with Dabrafenib + Trametinib (first compound 0.003 µM), 0.811; in the assay with Dabrafenib + Trametinib (first compound 0.009487 µM), 0.939; with Dabrafenib + Trametinib (first compound 0.03 µM), 0.961. The relative viability in the assay with Dabrafenib + Trametinib (first compound 0.09487 µM) is 0.944; with Dabrafenib + Trametinib (first compound 0.3 µM), 1.05; with VX-702 + Navitoclax (first compound 0.02 µM), 1.18; in the assay with VX-702 + Navitoclax (first compound 0.2 µM) it was 1.1; with VX-702 + Navitoclax (first compound 0.6325 µM) it was 0.83; in the assay with VX-702 + Navitoclax (first compound 2 µM), 0.869.

For the cell line SK-LU-1, the relative viability was found to be 1.03 with Dabrafenib (0.009487 µM); 0.661 in the assay with Dabrafenib (0.03 µM); 0.681 with Dabrafenib (0.09487 µM); 0.762 in the assay with Dabrafenib (0.3 µM); 1.15 with VX-702 (0.02 µM); 1.04 with VX-702 (0.2 µM). Besides, the relative viability with VX-702 (0.6325 µM) worked out at 1.1; with VX-702 (2 µM), 1.17; in the assay with Dabrafenib + Trametinib (first compound 0.009487 µM), 0.437; in the assay with Dabrafenib + Trametinib (first compound 0.03 µM), 0.329; with Dabrafenib + Trametinib (first compound 0.09487 µM), 0.488; with Dabrafenib + Trametinib (first compound 0.3 µM), 0.456. In addition, the relative viability in the assay with VX-702 + Navitoclax (first compound 0.02 µM) was 0.7; with VX-702 + Navitoclax (first compound 0.2 µM) it was 0.757; with VX-702 + Navitoclax (first compound 0.6325 µM) it was 0.66; with VX-702 + Navitoclax (first compound 2 µM), 1.32.

As to SK-MES-1, the relative viability amounted to 0.81 in the assay with Dabrafenib (0.003 µM); 1.08 with Dabrafenib (0.009487 µM); 1.03 in the assay with Dabrafenib (0.03 µM); 0.954 with Dabrafenib (0.09487 µM); 0.934 in the assay with Dabrafenib (0.3 µM); 0.998 with VX-702 (0.02 µM). Moreover, the relative viability with VX-702 (0.2 µM) was 0.966; with VX-702 (0.6325 µM) it was 0.944; with VX-702 (2 µM), 0.999; with Dabrafenib + Trametinib (first compound 0.009487 µM) it was 0.653; with Dabrafenib + Trametinib (first compound 0.03 µM) it was 0.747; with Dabrafenib + Trametinib (first compound 0.09487 µM), 0.712. Also, the relative viability in the assay with Dabrafenib + Trametinib (first compound 0.3 µM) came out at 0.827; with VX-702 + Navitoclax (first compound 0.02 µM), 1.24; in the assay with VX-702 + Navitoclax (first compound 0.2 µM), 1.12; in the assay with VX-702 + Navitoclax (first compound 0.6325 µM) it was 1.22; with VX-702 + Navitoclax (first compound 2 µM), 1.44.

As for SW 1573, the relative viability in the assay with Dabrafenib (0.003 µM) came to 0.899; with Dabrafenib (0.009487 µM), 0.916; with Dabrafenib (0.03 µM) it was 1.06; with Dabrafenib (0.09487 µM) it was 0.989; in the assay with Dabrafenib (0.3 µM), 1.05; in the assay with VX-702 (0.02 µM), 1.08. Besides, the relative viability with VX-702 (0.2 µM) worked out at 0.923; in the assay with VX-702 (0.6325 µM), 0.899; with VX-702 (2 µM) it was 1.03; with Dabrafenib + Trametinib (first compound 0.003 µM), 0.608; in the assay with Dabrafenib + Trametinib (first compound 0.009487 µM) it was 0.547; in the assay with Dabrafenib + Trametinib (first compound 0.03 µM) it was 0.669. The relative viability came to 0.648 with Dabrafenib + Trametinib (first compound 0.09487 µM); 0.705 with Dabrafenib + Trametinib (first compound 0.3 µM); 0.938 in the assay with VX-702 + Navitoclax (first compound 0.02 µM); 0.809 in the assay with VX-702 + Navitoclax (first compound 0.2 µM); 0.831 with VX-702 + Navitoclax (first compound 0.6325 µM); 0.909 with VX-702 + Navitoclax (first compound 2 µM).

UMC-11: the relative viability stood at 1.04 in the assay with Dabrafenib (0.003 µM); 0.988 in the assay with Dabrafenib (0.009487 µM); 0.855 with Dabrafenib (0.03 µM); 0.997 with Dabrafenib (0.09487 µM); 0.956 with Dabrafenib (0.3 µM); 0.923 with VX-702 (0.02 µM). Further, the relative viability in the assay with VX-702 (0.2 µM) was determined as 0.857; with VX-702 (0.6325 µM) it was 0.82; in the assay with VX-702 (2 µM), 1.12; in the assay with Dabrafenib + Trametinib (first compound 0.003 µM), 0.773; with Dabrafenib + Trametinib (first compound 0.009487 µM), 0.759; with Dabrafenib + Trametinib (first compound 0.03 µM), 0.495. Besides, the relative viability was determined as 0.755 with Dabrafenib + Trametinib (first compound 0.09487 µM); 0.848 in the assay with Dabrafenib + Trametinib (first compound 0.3 µM); 0.274 with VX-702 + Navitoclax (first compound 0.02 µM); 0.293 in the assay with VX-702 + Navitoclax (first compound 0.2 µM); 0.303 with VX-702 + Navitoclax (first compound 0.6325 µM); 0.359 in the assay with VX-702 + Navitoclax (first compound 2 µM).
